The values below come from patent publication US10760110B2, “Antibiotic testing and screening system” (priority 2017, dated 2020).

SMILES strings stand for the structures. Values after ≈ are worked out from the molar mass of the structure shown. Read-outs that look alike come from different tables or passages of the source. Some results are limits rather than exact numbers.

Test [1] deals with A. baumannii KW1 strains with β-lactamase plasmids. In words: Etest MIC of β-lactams, extended-spectrum β-lactamase, AmpC β-lactamase or carbapenemase (Table 18). It is filed as cell-based, Acinetobacter baumannii. A digest of the protocol:
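A. baumannii KW1 transformed by electroporation with pYMAb5 or pYMAb5Tc carrying PCR-cloned resistance genes plus flanking regions from clinical plasmids. MICs by Etest; values between two-fold dilutions rounded up to the next two-fold value.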

The subject of test [2] is clinical K. pneumoniae isolate producing the carbapenemase OXA-48. The note with it: previous study; cited from earlier work.
The subject of test [3] is K. pneumoniae NVT1001 harbouring the pACYC177 plasmid with blaOXA-48. In words: Mouse peritonitis-sepsis infection model. It is filed as in vivo, Klebsiella pneumoniae. Here is the method: Pathogen-free 6- to 8-week-old male BALB/c mice were obtained from the National Laboratory Animal Center (Taiwan) and maintained in the pathogen-free vivarium of the Laboratory Animal Center of National Defense Medical Center (Taiwan). K. pneumoniae NVT1001 harbouring the pACYC177 plasmid with blaOXA-48 was cultured overnight at 37° C. in BHI broth and then diluted (1:100) in fresh BHI broth. The culture was incubated until the mid-exponential growth phase, and the cells were then washed once, resuspended in 0.85% sterile saline, and adjusted to the desired concentrations according to the OD600 value. The concentrations were verified by plating the cells to determine viable counts. […] Meanwhile, antibiotic doses were prepared in 0.85% sterile saline. At 1 hour post-inoculation, antibiotic or 0.85% sterile saline alone was administered as a single subcutaneous injection with a volume of 0.3 mL per dose. The mice were then monitored daily for 7 days to measure survival.

Test [4] has the same test system. Description: Broth microdilution MIC (CLSI). The note with it: Klebsiella pneumoniae; broth microdilution test; NVT1001 with pACYC177 blaOXA-48. It is filed as cell-based. Here is the method: (§1) The MICs of antibiotics were determined using the Etest (Biodisk AB, Sweden) according to the manufacturer's instructions. The MICs from the Etest, which fall between standard two-fold dilutions, were rounded up to the next highest two-fold value. The MICs of ceftazidime and cefotaxime against K. pneumoniae NVT1001 harbouring the pACYC177 plasmid with blaOXA-48 were further determined using a broth microdilution test according to the recommendations of the CLSI,^25 and the results were interpreted according to the breakpoints established by the CLSI in 2017.^25 Meanwhile, due to the lack of CLSI breakpoints in 2016 and 2017, the results for cephalothin were interpreted according to the breakpoints established by the CLSI in 2015,^26 and the results for moxifloxacin were interpreted according to the breakpoints established by the EUCAST in 2017.^27
(In general: Dilution methods test growth across graded concentrations, often in twofold steps.)

Test [5] relates to clinical K. pneumoniae isolate producing the carbapenemase OXA-48. The note with it: previous study; cited from earlier work. The source holds these as a separate data set.
Test [6] has as its system K. pneumoniae NVT1001 strains with QnrB, QnrS or AAC(6′)-Ib-cr plasmids. In words: Etest MIC of quinolones, GyrA/ParC mutations, ΔramR and/or QnrB, QnrS or AAC(6′)-Ib-cr (Table 12). Format: cell-based. The note with it: Klebsiella pneumoniae. The procedure:
DNA fragments of the resistance genes along with their flanking regions were amplified from clinical plasmids via PCR with specific primer pairs. The resulting PCR fragments were digested and then cloned into the plasmid pACYC177 or pACYC184. The resulting plasmids were then transformed into K. pneumoniae strain NVT1001 via electroporation. The recombinant bacteria were plated onto LB agar plates containing kanamycin (50 mg/L) or chloramphenicol (50 mg/L), and the presence of the cloned gene was confirmed via PCR and DNA sequencing.
as §1

Test [7] relates to K. pneumoniae NVT1001 gyrA/parC and gyrA/parC/ramR mutants and revertants. Description: Etest MIC of quinolones, gyrA/parC and gyrA/parC/ramR mutants and their revertants (Table 11). It is filed as cell-based. Particulars: Klebsiella pneumoniae.
Description: The allelic-exchange method was used to restore the wild-type gene in the K. pneumoniae NVT1001 mutants with constructed chromosome-mediated resistance mechanisms, as described by Tsai et al.^19 Briefly, a DNA fragment of the entire wild-type gene sequence along with flanking regions was amplified from K. pneumoniae NVT1001 using PCR with specific primers. The resulting PCR fragment was digested and then cloned into pUT-KB. For homologous recombination, this plasmid was transformed into E. coli S17-1 λpir^23 via electroporation and mobilized into the K. pneumoniae NVT1001 mutant via conjugation. […] After incubation in 20 mL BHI broth for 6 hours at 37° C. in the absence of kanamycin, the fully grown cultures were spread onto LB agar plates supplemented with 10% sucrose. After the double crossover occurred, the sucrose-resistant and kanamycin-susceptible colonies were selected, and the restoration of the wild-type gene was confirmed via DNA sequencing.
as §1

In the case of `C[C@H]1[C@H](NC(=O)/C(=N\OC(C)(C)C(=O)O)c2csc(N)n2)C(=O)N1S(=O)(=O)O` [Aztreonam], the “effects on the MIC” value in test [1] (production of each carbapenemase tested) is “no increase effects”.

One may read the ED50 as the midpoint of the dose-response relation. Broadly, the MIC is the least concentration at which growth counts as inhibited. In the case of `CC(C)(O/N=C(\C(=O)N[C@@H]1C(=O)N2C(C(=O)[O-])=C(C[n+]3ccccc3)CS[C@H]12)c1csc(N)n1)C(=O)O` [Ceftazidime], the “ED50 (comparison)” value in test [2] is listed as “lower than that of cefotaxime”. Moreover, the “effects on the MIC” value in test [1] (production of OXA-type carbapenemases) is on record as “no increase effects”. The “in vivo efficacy (comparison)” value in test [3] (BALB/c mice) was “higher than that of cefotaxime”. The ED50 in test [3] (Klebsiella pneumoniae, sc, read-out: estimated ED50) is 30 mg/kg. The MIC in test [4] stood at 0.5 µg/mL (≈ 0.915 µM). Also, the “MIC relative to that of cefotaxime” value in test [5] is on record as 4 fold lower.

`CO/N=C(\C(=O)N[C@@H]1C(=O)N2C(C(=O)O)=C(COC(C)=O)CS[C@H]12)c1csc(N)n1` [Cefotaxime]: the survival of mice result in test [3] (BALB/c mice, 30 mg/kg) is listed as “no mice survived”. In test [4], it took 2 µg/mL (≈ 4.39 µM) to inhibit growth (MIC).

On to `C[C@H]1COc2c(N3CCN(C)CC3)c(F)cc3c(=O)c(C(=O)O)cn1c23` [Levofloxacin, levofloxacin], for which the MIC in test [6] (AAC(6′)-Ib-cr on pACYC177, S83I mutant) is 0.5 µg/mL; in test [6] (AAC(6′)-Ib-cr on pACYC177, S83I/D87N/S80I mutant) it was 8 µg/mL; in test [6] (AAC(6′)-Ib-cr on pACYC177, S83I/S80I mutant), 2 µg/mL; in test [6] (AAC(6′)-Ib-cr on pACYC177, WT (NVT1001), read-out: MIC), 0.06 µg/mL; in test [6] (AAC(6′)-Ib-cr on pACYC177, ΔramR mutant), 1 µg/mL; in test [6] (AAC(6′)-Ib-cr on pACYC177, ΔramR/S83I mutant), 8 µg/mL. Also, the MIC in test [6] (AAC(6′)-Ib-cr on pACYC177, ΔramR/S83I/D87N/S80I mutant) is > 32 µg/mL; in test [6] (AAC(6′)-Ib-cr on pACYC177, ΔramR/S83I/S80I mutant), > 32 µg/mL; in test [6] (QnrB on pACYC177, S83I mutant) it was 2 µg/mL; in test [6] (QnrB on pACYC177, S83I/D87N/S80I mutant), > 32 µg/mL; in test [6] (QnrB on pACYC177, S83I/S80I mutant), 16 µg/mL; in test [6] (QnrB on pACYC177, WT (NVT1001), read-out: MIC), 1 µg/mL. The MIC was 8 µg/mL in test [6] (QnrB on pACYC177, ΔramR mutant); > 32 µg/mL in test [6] (QnrB on pACYC177, ΔramR/S83I mutant); > 32 µg/mL in test [6] (QnrB on pACYC177, ΔramR/S83I/D87N/S80I mutant); > 32 µg/mL in test [6] (QnrB on pACYC177, ΔramR/S83I/S80I mutant); 4 µg/mL in test [6] (QnrS on pACYC177, S83I mutant); > 32 µg/mL in test [6] (QnrS on pACYC177, S83I/D87N/S80I mutant). Further, the MIC is 32 µg/mL in test [6] (QnrS on pACYC177, S83I/S80I mutant); 1 µg/mL in test [6] (QnrS on pACYC177, WT (NVT1001), read-out: MIC); 8 µg/mL in test [6] (QnrS on pACYC177, ΔramR mutant); > 32 µg/mL in test [6] (QnrS on pACYC177, ΔramR/S83I mutant); > 32 µg/mL in test [6] (QnrS on pACYC177, ΔramR/S83I/D87N/S80I mutant); > 32 µg/mL in test [6] (QnrS on pACYC177, ΔramR/S83I/S80I mutant). For the same molecule, the MIC in test [6] (no supplemental plasmid, S83I mutant) was found to be 0.5 µg/mL; in test [6] (no supplemental plasmid, S83I/D87N/S80I mutant), 8 µg/mL; in test [6] (no supplemental plasmid, S83I/S80I mutant), 2 µg/mL; in test [6] (no supplemental plasmid, WT (NVT1001), read-out: MIC), 0.06 µg/mL; in test [6] (no supplemental plasmid, ΔramR mutant), 1 µg/mL; in test [6] (no supplemental plasmid, ΔramR/S83I mutant), 16 µg/mL. In addition, the MIC in test [6] (no supplemental plasmid, ΔramR/S83I/D87N/S80I mutant) is > 32 µg/mL; in test [6] (no supplemental plasmid, ΔramR/S83I/S80I mutant), > 32 µg/mL; in test [7] (S83F/D87N/S80I mutant) it was 8 µg/mL; in test [7] (S83F/D87N/S80I::F83S/N87D/I80S revertant, read-out: MIC) it was 0.06 µg/mL; in test [7] (S83F/D87N/S80I::I80S revertant, read-out: MIC), 0.5 µg/mL; in test [7] (S83F/D87N/S80I::N87D revertant, read-out: MIC), 1 µg/mL. The MIC in test [7] (S83F/D87N/S80I::N87D/I80S revertant, read-out: MIC) is 0.5 µg/mL; in test [7] (S83I/D87N/S80I mutant), 8 µg/mL; in test [7] (S83I/D87N/S80I::I80S revertant, read-out: MIC) it was 1 µg/mL; in test [7] (S83I/D87N/S80I::I83S/N87D/I80S revertant, read-out: MIC), 0.06 µg/mL; in test [7] (S83I/D87N/S80I::N87D revertant, read-out: MIC), 4 µg/mL; in test [7] (S83I/D87N/S80I::N87D/I80S revertant, read-out: MIC), 1 µg/mL. In addition, the MIC was 8 µg/mL in test [7] (S83L/D87N/S80I mutant); 1 µg/mL in test [7] (S83L/D87N/S80I::I80S revertant, read-out: MIC); 0.06 µg/mL in test [7] (S83L/D87N/S80I::L83S/N87D/I80S revertant, read-out: MIC); 2 µg/mL in test [7] (S83L/D87N/S80I::N87D revertant, read-out: MIC); 1 µg/mL in test [7] (S83L/D87N/S80I::N87D/I80S revertant, read-out: MIC); 4 µg/mL in test [7] (S83Y/D87N/S80I mutant). Also, the MIC in test [7] (S83Y/D87N/S80I::I80S revertant, read-out: MIC) was 0.5 µg/mL; in test [7] (S83Y/D87N/S80I::N87D revertant, read-out: MIC), 1 µg/mL; in test [7] (S83Y/D87N/S80I::N87D/I80S revertant, read-out: MIC), 0.5 µg/mL; in test [7] (S83Y/D87N/S80I::Y83S/N87D/I80S revertant, read-out: MIC), 0.06 µg/mL; in test [7] (ΔramR/S83I/D87N/S80I mutant) it was > 32 µg/mL; in test [7] (ΔramR/S83I/D87N/S80I:: ramR/I83S revertant), 0.5 µg/mL. Besides, the MIC in test [7] (ΔramR/S83I/D87N/S80I:: ramR/I83S/I80S revertant) is 0.5 µg/mL; in test [7] (ΔramR/S83I/D87N/S80I:: ramR/I83S/N87D revertant), 0.06 µg/mL; in test [7] (ΔramR/S83I/D87N/S80I::I83S/N87D/I80S revertant), 1 µg/mL; in test [7] (ΔramR/S83I/D87N/S80I::N87D revertant) it was > 32 µg/mL; in test [7] (ΔramR/S83I/D87N/S80I::N87D/I80S revertant), 8 µg/mL; in test [7] (ΔramR/S83I/D87N/S80I::ramR/I83S/N87D/I80S), 0.06 µg/mL.
